According to patent US20110123988A1, “ANTISENSE COMPOUNDS AND METHODS FOR DIAGNOSTIC IMAGING” (GENESEEN LLC, priority 2003, published 2011):

Test system: cells expressing IGFR1 (murine BALB/c 3T3 cells; p6 cells overexpressing a transfected human IGFR1 gene; human Jurkat cells as negative control)
Experiment: Cellular uptake of PNA-peptide conjugates by cells in vitro
Assay type: cell-based
Conditions: versus control PNA Gly-CCGCTTCCTTTC without peptide; measured with both the 14C-conjugate and the fluoresceinyl-conjugate; BALB/c 3T3, p6 and Jurkat cells
Description: To improve cellular uptake of an IGFR1 antisense sequence targeted against IGFR1 mRNA codons 706-709 (CCGCTTCCTTTC, SEQ ID NO:42; Ullrich et al., 1986, EMBO J. 5:10:2503-2512), a PNA with this base sequence was conjugated to a D-amino acid IGF1 peptide having the sequence (Gly)4D(Cys-Ser-Lys-Cys). This peptide binds selectively to the cell surface receptor for insulin-like growth factor 1 (IGFR1), which is overexpressed on malignant cells (Pietrzkowski et al., 1992, Mol. Cell. Biol. 12:9:3883-3889). The same PNA was also conjugated to a control peptide of the sequence (Gly)4D(Cys-Ala-Ala-Cys), which is not expected to bind to cells expressing IGFR1. The IGF1 D-peptide and control peptide was assembled on (4-methyl benzhydrypamine (MBHA) resin, and then the PNA was extended as a continuation of the peptide. The IGF1 peptide and control peptide sequences were radiolabeled with ^14C or fluorescently labeled with fluorescein isothiocyanate (Basu & Wickstrom, 1997, Bioconj. Chem. 8:4:481-488).

Gly-CCGCTTCCTTTC-(Gly)4D(CysSerLysCys) (PNA, Gly, (Gly)4, D-peptide, 14C or fluorescein label, chemistry not fully specified) [labeled with 14C or fluorescein]
cellular uptake: much higher uptake than the control Gly-CCGCTTCCTTTC, but only in cells expressing IGFR1
